From US20130096099A1, “METHOD OF TREATING BRAIN CANCER” (NIIKI PHARMA INC., priority 2010, published 2013)
Entries after “also recorded” stand apart in the source; their conditions may differ.

What was measured:
U87 cell line = conditions: Bowles et al., J. Neurosurg., 73:248-253 (1990); cited from earlier work
glioma cell line U87 [1] = assay: Live-cell staining with Calcein AM / image analysis in 3-D HuBiogel tumor beads; assay type: cell-based; conditions: 3-D HuBiogel tumor beads from U87, Calcein AM, Day 3
Procedure: (§1) The compound sodium trans-[tetrachlorobis(1H-indazole)ruthenate(III)] was tested in a 3-dimentional tumor model derived from glioma cell line U87. Specifically, cells were trypsinized, washed, counted by trypan blue exclusion. Tumor beads were then prepared by mixing 20,000 cells/10 μl of HuBiogel (4 mg/mL) (See U.S. patent application Ser. No. 10/546,506, which is incorporated herein by reference). The 3-D tumor beads were cultivated for 72 hours in multi-well plates with complete media (10% FBS) in a 37° C. incubator +5% CO2. Mini-tumors were treated with various concentrations of the test compound sodium trans-[tetrachlorobis(1H-indazole)ruthenate(III)] in media (final 0.2-0.3% DMSO) or control (DMSO). Repeated drug treatment was done by removing the culture media and replacing with fresh media with drug compound or DMSO. On Day 3, MTT assay and live-cell staining with Calcein AM were performed (5 beads/assay set).
(§2) Statistical analysis of data sets (Average, T-test, GI-50) was performed using MS-Excel program. […] See e.g., Bowles et al., J. Neurosurg., 73:248-253 (1990).

glioma cell line U87 [2] = assay: MTT assay in 3-dimentional tumor model (HuBiogel) derived from glioma cell line U87; assay type: cell-based
Procedure: as §1, §2

SMILES	resistance of U87 cell line to drug (U87 cell line)	tumor killing in live-cell staining/image analysis (glioma cell line U87 [1])	tumor proliferation activity / growth inhibition (MTT assay) (glioma cell line U87 [2]; 3-D HuBiogel tumor beads from U87, Day 3, FIG. 1)	GI50 (glioma cell line U87 [2]; 3-D HuBiogel tumor beads from U87, MTT assay on Day 3, read-out: average GI-50 (the drug concentration required for growth inhibition at 50%)) [µM]
O=NN(CCCl)C(=O)NCCCl [BCNU, bis-chloronitrosourea]	relatively resistant	–	–	–
[Cl][Ru-]([Cl])([Cl])[Cl].[Na+].c1ccc2[nH]ncc2c1.c1ccc2[nH]ncc2c1 [sodium trans-[tetrachlorobis(1H-indazole)ruthenate(III)]]	–	dose-dependent tumor killing effective	dose-dependent growth inhibition; also recorded: significantly inhibited tumor proliferation activity	95
